# Data: patent publication US8507538B2, “Selective heterocyclic sphingosine 1 phosphate receptor modulators” (Receptos, Inc., priority 2009, dated 2013)
# Counter-ions that a name gives are not always drawn.
# Target: S1P1/EDG1 (Homo sapiens, UniProt P21453)
# Assay: S1P1 CRE-bla CHOK1 reporter assay (inhibition of Forskolin induced cAMP)
# Type: cell-based
# Settings: agonist activity range, Table 2; read-out: S1P1 ACTIVITY
# Description: A mammalian expression plasmid containing S1P1/EDG1 cloned into pcDNA3.1 was purchased from Missouri S&T cDNA Resource Centre. The nucleotide and amino acid sequence of human S1P1/EDG1 are published in Hla and Maciag (J Biol Chem, 265(1990), 9308-9313). S1P1/pcDNA3.1 was transfected into the CRE-bla CHO K1 (Invitrogen) cell line, and stable single cell clones were selected using standard techniques. Expression of functional SIP1/EDG1 receptor was confirmed by cell surface FACS with a S1P1 antibody (R&D Systems, clone 218713) and S1P-mediated inhibition of Forskolin induced cAMP.
# Cells were seeded into 384-well black wall/clear bottom plates at 10^4 cells/well/19.5 μl assay media (DMEM-phenol free, 0.5% charcoal/dextran stripped serum, 2 mM glutamine, 0.1 mM NEAA, 1 mM Na-Pyruvate, 25 mM Hepes) and incubated for 18 hrs at 37° C. in 5% CO2. Dose response curves (10-point) were generated in 10 mM Hepes, 0.1% Pluronic F127, in the presence of Forskolin. Cells were treated with 0.5 μl compound in the presence of 2 μM Forskolin for 4 hrs at 37° C. The FRET-based β-lactamase fluorescent substrate (LiveBLAzer™ FRET B/G Loading Kit CC4-AM; Invitrogen) was prepared according to manufacturer's directions, and incubated with cells for 2 hrs at room temperature. Plates were read at Ex:410/Em:458 and Ex:410/Em:522, and the response ratio determined. Data was analyzed by non-linear regression to determine the EC50 for inhibition of Forskolin induced cAMP.
# Sequence of S1P1/EDG1 (P21453 whole entry): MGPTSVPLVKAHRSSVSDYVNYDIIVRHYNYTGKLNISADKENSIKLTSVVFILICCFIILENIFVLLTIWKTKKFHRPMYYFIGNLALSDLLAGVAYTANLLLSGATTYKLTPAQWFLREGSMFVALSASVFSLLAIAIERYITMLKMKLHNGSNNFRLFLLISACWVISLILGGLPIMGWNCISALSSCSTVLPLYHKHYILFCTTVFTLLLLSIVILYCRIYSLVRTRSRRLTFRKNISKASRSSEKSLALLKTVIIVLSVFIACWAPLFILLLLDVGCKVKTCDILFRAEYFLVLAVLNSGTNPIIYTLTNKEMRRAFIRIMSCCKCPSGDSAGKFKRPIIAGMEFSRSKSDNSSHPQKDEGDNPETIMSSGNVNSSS
row,Structure (SMILES),EC50 [nM]
1,CC(C)Oc1ccc(-c2ncc(-c3cccc4c3CC[C@@H]4NC(=O)N3CCC(CC(=O)O)CC3)s2)cc1C#N [Compound 200],0.05 to 0.5
2,CC(C)Oc1ccc(-c2ncc(-c3cccc4c3CC[C@@H]4NC(=O)CN)s2)cc1C#N [Compound 77],0.05 to 0.5
3,COCCS(=O)(=O)N[C@H]1CCc2c(-c3cnc(-c4ccc(OC(C)C)c(C#N)c4)s3)cccc21 [Compound 115],0.05 to 0.5
4,"CC(C)Oc1ccc(-c2ncc(-c3cccc4c3CCC4NCC(=O)N3CC[C@H](O)C3)s2)cc1C#N (stereo in doubt) [Compound 102, 5-(5-((R)-1-((2-((S)-3-hydroxypyrrolidin-1-yl)-2-oxoethyl)amino)-2,3-dihydro-1H-inden-4-yl)thiazol-2-yl)-2-isopropoxybenzonitrile hydrochloride]",0.05 to 0.5
5,CC(C)Oc1ccc(-c2ncc(-c3cccc4c3CC[C@@H]4NC(=O)N3CC[C@@H](O)C3)s2)cc1C#N [Compound 174],0.05 to 0.5
6,"CC(C)Oc1ccc(-c2ncc(-c3cccc4c3CC[C@@H]4O)s2)cc1C#N [Compound 70, (S)-5-(5-(1-hydroxy-2,3-dihydro-1H-inden-4-yl)thiazol-2-yl)-2-isopropoxybenzonitrile]",0.5 to 5
7,CC(C)Oc1ccc(-c2ncc(-c3cccc4c3CC[C@@H]4NS(=O)(=O)CCN3CCOCC3)s2)cc1C#N [Compound 121],0.5 to 5
8,CC(C)Oc1ccc(-c2ncc(-c3cccc4c3CC[C@@H]4NS(=O)(=O)CCN3CCC[C@H](O)C3)s2)cc1C#N [Compound 144],0.5 to 5
9,"CC(C)Oc1ccc(-c2nnc(-c3cccc4c3CCC4NCc3ncc[nH]3)s2)cc1C#N (stereo in doubt) [Compound 29, (R)-5-(5-(1-(((1H-imidazol-2-yl)methyl)amino)-2,3-dihydro-1H-inden-4-yl)-1,3,4-thiadiazol-2-yl) -2-isopropoxybenzonitrile]",0.05 to 0.5
10,COCCN(CCOC)[C@H]1CCc2c(-c3nnc(-c4ccc(OC(C)C)c(C#N)c4)s3)cccc21 [Compound 30],0.5 to 5
11,CC(C)Oc1ccc(-c2ncc(-c3cccc4c3CC[C@@H]4NC(=O)N3CC[C@@H](N(C)C)C3)s2)cc1C#N [Compound 185],> 5
12,CC(C)Oc1ccc(-c2ncc(-c3cccc4c3CC[C@@H]4NC(=O)N3CCNCC3)s2)cc1C#N [Compound 188],0.5 to 5
13,"CC(C)Oc1ccc(-c2nnc(-c3cccc4c3CC[C@@H]4NCc3ncc[nH]3)s2)cc1C#N [Compound 28, (S)-5-(5-(1-(((1H-imidazol-2-yl)methyl)amino)-2,3-dihydro-1H-inden-4-yl)-1,3,4-thiadiazol-2-yl)-2-isopropoxybenzonitrile]",0.05 to 0.5
14,CC(C)Oc1ccc(-c2ncc(-c3cccc4c3CC[C@@H]4NS(=O)(=O)C3CC3)s2)cc1C#N [Compound 117],0.05 to 0.5
15,CC(=O)N[C@H]1CCc2c(-c3cnc(-c4ccc(OC(C)C)c(C#N)c4)s3)cccc21 [Compound 88],0.5 to 5
16,CC(C)Oc1ccc(-c2nnc(-c3cccc4c3CC[C@@H]4NC(=O)N3CC[C@H](O)C3)s2)cc1C#N [Compound 54],0.05 to 0.5
17,CC(C)Oc1ccc(-c2ncc(-c3cccc4c3CC[C@@H]4NS(=O)(=O)CCN3CCCC3)s2)cc1C#N [Compound 130],0.5 to 5
18,CC(C)Oc1ccc(-c2nnc(-c3cccc4c3CC[C@@H]4NCC(=O)N3CCOCC3)s2)cc1C#N [Compound 25],0.05 to 0.5
19,CC(C)Oc1ccc(-c2ncc(-c3cccc4c3CCC4N3CCN(C)CC3)s2)cc1C#N (stereo not shown) [Compound 216],0.5 to 5
20,CNCCS(=O)(=O)N[C@H]1CCc2c(-c3cnc(-c4ccc(OC(C)C)c(C#N)c4)s3)cccc21 [Compound 125],0.5 to 5
21,"CC(C)Oc1ccc(-c2ncc(-c3cccc4c3CC[C@@H]4NS(C)(=O)=O)s2)cc1C#N [Compound 112, (S)-N-(4-(2-(3-cyano-4-isopropoxyphenyl)thiazol-5-yl)-2,3-dihydro-1H-inden-1-yl)methanesulfonamide]",0.05 to 0.5
22,CC(C)Oc1ccc(-c2ncc(-c3cccc4c3CC[C@@H]4NCC(=O)N3CCNCC3)s2)cc1C#N [Compound 107],0.5 to 5
23,CC(C)Oc1ccc(-c2ncc(-c3cccc4c3CC[C@@H]4NS(=O)(=O)CCN3CC[C@H](N)C3)s2)cc1C#N [Compound 135],> 5

row,Structure (SMILES),EC50 [nM]
1,"CC(C)Oc1ccc(-c2ncc(-c3cccc4c3CCC4NS(=O)(=O)CC(=O)O)s2)cc1C#N (stereo in doubt) [Compound 158, (R)-2-(N-(4-(2-(3-cyano-4-isopropoxyphenyl)thiazol-5-yl)-2,3-dihydro-1H-inden-1-yl)sulfamoyl)acetic acid]",< 0.05
2,"CC(C)Oc1ccc(-c2nnc(-c3cccc4c3CC[C@@H]4NS(=O)(=O)CCN3CCC(O)C3)s2)cc1C#N (stereo in doubt) [Compound 37, N-((S)-4-(5-(3-cyano-4-isopropoxyphenyl)-1,3,4-thiadiazol-2-yl)-2,3-dihydro-1H-inden-1-yl)-2-((R)-3-hydroxypyrrolidin-1-yl)ethanesulfonamide]",0.5 to 5
3,"CC(C)Oc1ccc(-c2ncc(-c3cccc4c3CC[C@@H]4NC(=O)CO)s2)cc1C#N [Compound 73, (S)-N-(4-(2-(3-cyano-4-isopropoxyphenyl)thiazol-5-yl)-2,3-dihydro-1H-inden-1-yl)-2-hydroxyacetamide]",0.05 to 0.5
4,"CC(C)Oc1ccc(-c2ncc(-c3cccc4c3CCC4NCCO)s2)cc1C#N (stereo in doubt) [Compound 91, (R)-5-(5-(1-((2-hydroxyethyl)amino)-2,3-dihydro-1H-inden-4-yl)thiazol-2-yl) -2-isopropoxybenzonitrile]",0.5 to 5
5,CC(C)Oc1ccc(-c2nnc(-c3cccc4c3CC[C@H]4NC(=O)N(C)C)s2)cc1C#N [Compound 66],0.05 to 0.5
6,CC(C)Oc1ccc(-c2ncc(-c3cccc4c3CCC4N[C@H](C)CO)s2)cc1C#N (stereo partly shown) [Compound 95],0.5 to 5
7,CC(=O)N[C@H]1CCc2c(-c3cnc(-c4ccc(OC(C)C)c(C#N)c4)s3)cccc21 [Compound 87],0.05 to 0.5
8,"CC(C)Oc1ccc(-c2ccc(-c3cccc4c3CCC4O)s2)cc1C#N (stereo not shown) [Compound 223, 5-(5-(1-hydroxy-2,3-dihydro-1H-inden-4-yl)thiophen-2-yl)-2-isopropoxybenzonitrile]",0.5 to 5
9,"CC(C)Oc1ccc(-c2nnc(-c3cccc4c3CC[C@H]4NC(=O)CO)s2)cc1C#N [Compound 8, (R)-N-(4-(5-(3-cyano-4-isopropoxyphenyl)-1,3,4-thiadiazol-2-yl)-2,3-dihydro-1H-inden-1-yl)-2-hydroxyacetamide]",0.05 to 0.5
10,COC(=O)N[C@H]1CCc2c(-c3cnc(-c4ccc(OC(C)C)c(C#N)c4)s3)cccc21 [Compound 89],0.5 to 5
11,CC(C)Oc1ccc(-c2nnc(-c3cccc4c3CC[C@@H]4NC(=O)CN(C)C)s2)cc1C#N [Compound 13],0.5 to 5
12,"CC(C)Oc1ccc(-c2nnc(-c3cccc4c3CCC4NS(=O)(=O)CC(=O)O)s2)cc1C#N (stereo in doubt) [Compound 41, (R)-2-(N-(4-(5-(3-cyano-4-isopropoxyphenyl)-1,3,4-thiadiazol-2-yl)-2,3-dihydro-1H-inden-1-yl)sulfamoyl)acetic acid]",< 0.05
13,COCCN[C@H]1CCc2c(-c3cnc(-c4ccc(OC(C)C)c(C#N)c4)s3)cccc21 [Compound 93],0.5 to 5
14,CC(C)Oc1ccc(-c2ncc(-c3cccc4c3CCC4N3CCOCC3)s2)cc1C#N (stereo not shown) [Compound 214],0.5 to 5
15,CC(C)Oc1ccc(-c2ncc(-c3cccc4c3CC[C@@H]4NS(=O)(=O)CCN(C)C)s2)cc1C#N [Compound 123],0.5 to 5
16,"CC(C)Oc1ccc(-c2nnc(-c3cccc4c3CC[C@@H]4NCCS(C)(=O)=O)s2)cc1C#N [Compound 31, (S)-2-isopropoxy-5-(5-(1-((2-(methylsulfonyl)ethyl)amino)-2,3-dihydro-1H-inden-4-yl)-1,3,4-thiadiazol-2-yl)benzonitrile]",0.05 to 0.5
17,CC(C)Oc1ccc(-c2ncc(-c3cccc4c3CC[C@@H]4NC(=O)N3CCN(C)CC3)s2)cc1C#N [Compound 190],0.5 to 5
18,CC(C)Oc1ccc(-c2ncc(-c3cccc4c3CC[C@@H]4NS(=O)(=O)CCN3CC[C@@H](N(C)C)C3)s2)cc1C#N [Compound 138],> 5
19,CC(C)Oc1ccc(-c2ncc(-c3cccc4c3CC[C@@H]4NS(=O)(=O)CCN3CCC(CO)CC3)s2)cc1C#N [Compound 149],0.5 to 5
20,CC(C)Oc1ccc(-c2ncc(-c3cccc4c3CC[C@@H]4NCC(=O)N3CC[C@H](O)C3)s2)cc1C#N [Compound 105],> 5
21,"CC(C)Oc1ccc(-c2nnc(-c3cccc4c3CCC4NCC(=O)O)s2)cc1C#N (stereo in doubt) [Compound 27, (R)-2-((4-(5-(3-cyano-4-isopropoxyphenyl)-1,3,4-thiadiazol-2-yl)-2,3-dihydro-1H-inden-1-yl)amino)acetic acid]",0.05 to 0.5
22,COCCN[C@H]1CCc2c(-c3nnc(-c4ccc(OC(C)C)c(C#N)c4)s3)cccc21 [Compound 19],0.5 to 5
23,"COC(=O)N[C@H]1CCc2c(-c3nnc(-c4ccc(OC(C)C)c(C#N)c4)s3)cccc21 [Compound 16, (S)-methyl(4-(5-(3-cyano-4-isopropoxyphenyl)-1,3,4-thiadiazol-2-yl)-2,3-dihydro-1H-inden-1-yl)carbamate]",0.5 to 5
